Results: article PMC7823780 (Viruses, 2021)
Entries after “also recorded” stand apart in the source; their conditions may differ. Where two headings read alike, the source gives them in different places.

Columns and labels:
[1] = system: CV-B3; test: Plaque reduction assay CV-B3; assay type: cell-based, human enterovirus B; settings: Enterovirus B
[2] = Cytotoxicity assay, MTT, mock-infected Vero-76; assay type: cell-based; settings: Cercopithecus aethiops, mock-infected Vero-76 cells, mock-infected Vero-76, MTT; for CC50 at 3 days: value marked *, after 3 * days; for CC50: value printed without *
[3] = system: Echo9; test: Plaque reduction assay Echo9; assay type: cell-based, human enterovirus B; settings: Enterovirus B; 50% reduction of plaque number, LLC-MK2 cells
[4] = system: CV-B5; test: Plaque reduction assay CV-B5; assay type: cell-based, human enterovirus B; settings: Enterovirus B
[5] = Cytotoxicity assay, MTT, mock-infected BHK-21; assay type: cell-based; settings: Syrian hamster, mock-infected BHK-21 cells; mock-infected BHK-21, MTT
[6] = Cytotoxicity assay, MTT, mock-infected MDBK; assay type: cell-based; settings: bovine, mock-infected MDBK cells
[7] = Cytotoxicity assay, MTT, mock-infected HeLa; assay type: cell-based; settings: human, mock-infected HeLa cells
[8] = system: CV-B4; test: Plaque reduction assay CV-B4; assay type: cell-based, human enterovirus B; settings: for EC50: Enterovirus B
[9] = Cytotoxicity assay, mock-infected LLC-MK2; assay type: cell-based; settings: Macaca mulatta, mock-infected LLC-MK2 cells, mock-infected LLC-MK2, MTT
[10] = system: EV-D68; test: Inhibition of EV-D68-induced cytopathogenicity in HeLa cells (MTT); assay type: cell-based, human enterovirus D 68 strain Fermon; settings: for EC50: Enterovirus D, EVD68, m.o.i. 0.01
[11] = system: PV-1; test: microbe, parasite or virus in culture; assay type: cell-based; settings: Enterovirus C, read-out: EC50 PV-1
[12] = system: EV-A71; test: Virucidal activity assay; assay type: cell-based, human enterovirus A71 strain BrCr; settings: 20 µM, 4 or 37 °C, 1 h
[13] = system: EV-A71; test: Apoptosis assay, Annexin V/PI flow cytometry, EV-A71-infected Vero-76; assay type: cell-based, human enterovirus A71 strain BrCr; settings: 96 h, m.o.i. 0.1
[14] = system: EV-A71; test: Protective effect on EV-A71-infected Vero-76 monolayers (cell morphology); assay type: cell-based
[15] = system: EV-A71; test: Time-of-addition assay; assay type: cell-based, human enterovirus A71 strain BrCr; settings: Vero-76, m.o.i. 1, 20 µM
[16] = system: Caco-2 cells; test: Cell monolayer permeabilization (TEER); assay type: cell-based, human; settings: Caco-2 monolayers, 20 µM, all time points up to 48 h
[17] = system: EV-A71; test: Adsorption assay; assay type: cell-based, human enterovirus A71 strain BrCr; settings: Vero-76, m.o.i. 1, 20 µM, 2 h at 4 °C
[18] = system: EV-A71; test: Cell pretreatment assay; assay type: cell-based, human enterovirus A71 strain BrCr; settings: Vero-76 pre-incubated 2 h with 20 µM, then infected
[19] = system: EV-A71; test: Penetration assay; assay type: cell-based, human enterovirus A71 strain BrCr; settings: Enterovirus A, EVA71, 1 h; Vero-76, 100–0.8 µM, 60 min at 37 °C; read-out: EC50 of inhibition of viral penetration
[20] = system: EV-A71; test: Yield reduction assay; assay type: cell-based, human enterovirus A71 strain BrCr; settings: Vero-76, m.o.i. 0.1, 100, 20, 4 and 0.8 µM, 96 h
[21] = system: EV-A71; test: Inhibition of EV-A71-induced cytopathogenicity in Vero-76 cells (MTT); assay type: cell-based, human enterovirus A71 strain BrCr
[22] = CVB3, 50% reduction of plaque number, read-out: EC50 CV-B3
[23] = CVB5, 50% reduction of plaque number, read-out: EC50 CV-B5
[24] = CVB4, 50% reduction of plaque number, read-out: EC50 CV-B4

| Compound | EC50 [1, 22] | CC50 [2] | EC50 [3] | EC50 [4, 23] | CC50 [5] | CC50 [6] | CC50 at 4 days [7] | EC50 [8, 24] | CC50 at 5 days [9] | EC50 [10] | EC50 [11] | further results |
| --- | --- | --- | --- | --- | --- | --- | --- | --- | --- | --- | --- | --- |
| CC(C)c1ccc(-c2nc3ccccc3[nH]2)cc1 [Compound 1a, 2-(4-Isopropylphenyl)-1H-Benzo[d]imidazole] | > 60 µM | 60 µM | > 6 µM | > 60 µM | 36 µM | 65 µM | 9 µM | > 60 µM | 6 µM | > 9 µM | 11.5 µM | CC50 at 3 days [2]: 24 µM |
| CC(C)(C)c1ccc(-c2nc3ccccc3[nH]2)cc1 [Compound 1b, 2-(4-(Tert-Butyl)phenyl)-1H-Benzo[d]imidazole] | > 46 µM | 46 µM | > 6.5 µM | 7 µM | 20 µM | 9 µM | 9 µM | > 46 µM | 6.5 µM | > 9 µM | 9 µM | CC50 at 3 days [2]: 40 µM |
| CC(C)c1ccc(-c2nc3cc(Cl)ccc3[nH]2)cc1 [Compound 2a, 5-Chloro-2-(4-Isopropylphenyl)-1H-Benzo[d]imidazole] | 17 µM | > 100 µM | 8 µM | 10 µM | > 100 µM | 80 µM | 100 µM | ≥ 100 µM | > 100 µM | > 100 µM | 9 µM | EC50 CV-B4 ([8]; 50% reduction of plaque number): No activity |
| CC(C)(C)c1ccc(-c2nc3cc(Cl)ccc3[nH]2)cc1 [Compound 2b, 2-(4-(Tert-Butyl)phenyl)-5-Chloro-1H-Benzo[d]imidazole] | 33 µM | > 100 µM | 4 µM | 10 µM | > 100 µM | > 100 µM | 100 µM | 25.5 µM | 12 µM | > 100 µM | 6 µM | virucidal effect on EV-A71 infectivity [12]: failed to affect the EV-A71 infectivity; viability at 20 µM ([13]; Enterovirus A, EVA71, Vero-76, 20 µM, read-out: viability of EV-A71-infected cells): 90%; viability at 80 µM ([13]; Enterovirus A, EVA71, Vero-76, 80 µM, read-out: viability of EV-A71-infected cells): 80%; necrotic cells among EV-A71-infected cells ([13]; Vero-76, 20 µM): 10%; necrotic cells among EV-A71-infected cells ([13]; Vero-76, 80 µM): 20%; protection of Vero-76 monolayer from EV-A71 infection (morphology) ([14]; 20 µM and 80 µM, m.o.i. 0.1): protect cells from EV-A71 infection; cytotoxic effect on Vero-76 monolayer (morphology) ([14]; up to a concentration of 80 µM): no evident cytotoxic effects; effect by time of addition [15]: greatest effect when added along with the virus; TEER values versus control [16]: not significantly different from control values; also recorded: did not induce any significant change in permeability; virus titer in adsorption assay [17]: detectable reduction in the virus titer; inhibition after cell pre-incubation [18]: no inhibition; EC50 [19]: 6.2 µM; reduction in EV-A71 titer (yield reduction) [20]: dose-dependent reduction; EC50 ([21]; 50% protection of Vero-76 cells from EV-A71-induced cytopathogenicity, MTT, m.o.i. 0.01): 3.5 µM; selectivity index ([21]; EV-A71, Vero-76): > 30 |
| CC(C)c1ccc(-c2nc3cc(Cl)c(Cl)cc3[nH]2)cc1 [Compound 3a, 5,6-Dichloro-2-(4-Isopropylphenyl)-1H-Benzo[d]imidazole] |  | 25.5 µM | > 7 µM |  | 8 µM | 2.5 µM | 8 µM |  | 7 µM | > 8 µM | > 25.5 µM | EC50 ([1]; CVB3, read-out: EC50 CV-B3): > 25.5 µM; CC50 at 3 days [2]: 8 µM; EC50 ([4]; CVB5, read-out: EC50 CV-B5): > 25.5 µM; EC50 ([8]; CVB4, read-out: EC50 CV-B4): > 25.5 µM |
| CC(C)(C)c1ccc(-c2nc3cc(Cl)c(Cl)cc3[nH]2)cc1 [Compound 3b, 2-(4-(Tert-Butyl)phenyl)-5,6-Dichloro-1H-Benzo[d]imidazole] | > 9 µM | 9 µM | > 12 µM | 2 µM | 9 µM | 7 µM | 6.4 µM | > 9 µM | 12 µM | > 6.4 µM |  |  |
| CC(C)c1ccc(-c2nc3cc(F)ccc3[nH]2)cc1 [Compound 4a, 5-Fluoro-2-(4-Isopropylphenyl)-1H-Benzo[d]imidazole] | > 100 µM | > 100 µM | > 29.5 µM | > 100 µM | > 100 µM | > 100 µM | > 100 µM | > 100 µM | 29.5 µM | > 100 µM | ≥ 100 µM |  |
| CC(C)(C)c1ccc(-c2nc3cc(F)ccc3[nH]2)cc1 [Compound 4b, 2-(4-(Tert-Butyl)phenyl)-5-Fluoro-1H-Benzo[d]imidazole] | > 100 µM | > 100 µM | > 100 µM | > 100 µM | > 100 µM | > 100 µM | > 100 µM | > 100 µM | > 100 µM | > 100 µM | 20 µM |  |
| CC(C)c1ccc(-c2nc3cc(F)c(F)cc3[nH]2)cc1 [Compound 5a, 5,6-Difluoro-2-(4-Isopropylphenyl)-1H-Benzo[d]imidazole] | > 100 µM | > 100 µM | > 100 µM | > 100 µM | > 100 µM | > 100 µM | > 100 µM | > 100 µM | 100 µM | > 100 µM | 12 µM | EC50 EV-D68 ([10]; m.o.i. 0.01): not active |
| CC(C)(C)c1ccc(-c2nc3cc(F)c(F)cc3[nH]2)cc1 [Compound 5b, 2-(4-(Tert-Butyl)phenyl)-5,6-Difluoro-1H-Benzo[d]imidazole] | > 100 µM | > 100 µM | > 100 µM | > 100 µM | > 100 µM | > 100 µM | > 100 µM | > 100 µM | > 100 µM | 4 µM | 10 µM |  |
| C[C@@]1(O)[C@H](O)[C@@H](CO)O[C@H]1n1ccc(N)nc1=O [NM 107, 2′-C-methylcytidine, reference compound] |  | > 100 µM |  |  |  |  |  | 29 µM |  |  | 6 µM |  |
| Cc1cc(CCCOc2c(C)cc(-c3noc(C(F)(F)F)n3)cc2C)on1 [Plc, Pleconaril, reference compound] | 2 ± 0.005 µM | > 100 µM | 0.1 µM | 2 ± 0.5 µM |  |  |  |  | > 100 µM | 0.3 µM |  |  |
| CCOC(=O)/C=C/[C@H](C[C@@H]1CCNC1=O)NC(=O)[C@@H](CC(=O)[C@@H](NC(=O)c1cc(C)on1)C(C)C)Cc1ccc(F)cc1 [Rup, Rupintrivir, reference compound] |  | > 100 µM |  |  |  |  |  |  |  |  | 0.07 µM |  |
